According to patent US10781201B2, “Benzimidazole derivative having JNK inhibitory activity and use thereof” (INDUSTRY-UNIVERSITY COOPERATION FOUNDATION HANYANG …, priority 2017, dated 2020):
pIC50: −log10 of the molar value. One block for each molecule: values may come before it.

What was measured:
[1] = target: human JNK3 enzyme (Homo sapiens, UniProt P53779); experiment: Measurement of JNK3 enzymatic activity (33P-ATP filter-binding method); type: biochemical; conditions: ATP 10 μM, ATF2 3 μM
Protocol: First, a substrate was added to a prepared base reaction buffer solution (20 mM Hepes (pH 7.5), 10 mM MgCl2, 1 mM EGTA, 0.02% Brij35, 0.02 mg/ml BSA, 0.1 mM Na3VO4, 2 mM DTT, 1% DMSO), a human JNK3 enzyme was added into the prepared substrate solution, and the resulting solution was mixed. ATP (10 μM) and ATF2 (3 μM) were used as substrates, and among them, ATP was used as a common substrate. Next, the compound according to the present invention dissolved in 100% DMSO was added to an enzyme reaction solution, and incubated at room temperature for 20 minutes. Subsequently, ^33P-ATP was added to the mixed reaction solution to initiate the reaction, followed by incubation at room temperature for 2 hours, and enzymatic activity was detected by a filter-binding method. Specifically, 25 al per resulting solution was slowly spotted on P81 paper and placed in a scintillation vial, and then the paper was washed four times with 0.75% phosphoric acid for 10 minutes each and washed once with acetone for 5 minutes. 5 ml of a scintillation cocktail was added to the scintillation vial and signals were read using a scintillation counter.

[2] = test system: P-gp (MDR1); experiment: Evaluation of migration of blood-brain barrier (BBB migration evaluation system); type: in vitro ADME; conditions: human, Caco-2-MDR1 cells; for Papp A→B: apical to basolateral, read-out: A to B (permeability coefficient Papp); for Papp B→A: basolateral to apical, read-out: B to A (permeability coefficient Papp)
Text: (§1) The blood-brain barrier (BBB) functions as a primary barrier to prevent the invasion of foreign substances, but acts as an obstacle to treatment in pathological circumstances. That is, therapeutics for the treatment of brain diseases or maintaining the condition thereof are very unlikely to permeate the blood-brain barrier, and thus are unable to be effectively used, and accordingly, the selection of drugs for the treatment of brain diseases is limited. […] […] amount of material permeating into mebrain, A: area, and C0: initial concentration of material)

[3] = test system: P-gp(MDR1)-overexpressing Caco-2-MDR1 cells; experiment: as above; type: in vitro ADME; conditions: class in words
Text: as §1

[4] = test system: Alzheimer's disease transgenic mice; experiment: Reducing concentration of APP and beta-amyloid oligomer in brain tissue, western blotting; type: in vivo; conditions: IV 15 mg/kg/day three times per 1 week for a total of 2 weeks, compared to non-treated 2×TG(veh)
Text: JNK3 is known to phosphorylate and activate amyloid precursor protein (APP), which is the main cause of Alzheimer's disease, to thus allow the APP to be located in a cell membrane, and promotes the conversion of APP to beta-amyloid, and it has been reported that, even in a case in which, after beta-amyloid is formed, the apoptosis of neurons is induced by toxicity thereof, the activation of JNK3 acts as a main cause. Based on these facts, in the present experimental example, the derivative of the present invention (compound 35d) was administered via intravenous injection (IV) to Alzheimer's disease transgenic mice in a dose of 15 mg/kg/day three times per 1 week for a total of 2 weeks, and then changes in the concentration of APP and beta-amyloid oligomer in the frontal lobe cortex were confirmed through western blotting. Meanwhile, normal mice (WT(veh)) were used as a control, and non-treated Alzheimer's disease transgenic mice (2×TG(veh)) were used as a comparative group.

Sequence of human JNK3 enzyme (P53779 whole entry): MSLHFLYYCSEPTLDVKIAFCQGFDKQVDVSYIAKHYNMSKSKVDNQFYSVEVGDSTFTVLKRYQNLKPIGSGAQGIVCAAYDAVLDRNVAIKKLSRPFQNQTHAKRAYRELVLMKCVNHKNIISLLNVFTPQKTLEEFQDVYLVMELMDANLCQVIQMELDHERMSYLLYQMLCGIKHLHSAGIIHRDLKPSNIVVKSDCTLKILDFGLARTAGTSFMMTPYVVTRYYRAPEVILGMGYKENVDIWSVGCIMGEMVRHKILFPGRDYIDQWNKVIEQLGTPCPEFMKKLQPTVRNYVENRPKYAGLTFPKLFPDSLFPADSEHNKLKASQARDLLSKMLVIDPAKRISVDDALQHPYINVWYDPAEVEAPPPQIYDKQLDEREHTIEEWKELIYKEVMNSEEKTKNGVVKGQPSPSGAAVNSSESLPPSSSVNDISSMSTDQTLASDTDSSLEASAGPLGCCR

- pIC50 ([1]; Table 2): 7.00 to 7.52
- efflux ratio [2]: 1.03
- Papp A→B [2]: 19.2 ×10⁻⁶ cm/s
- Papp B→A [2]: 19.9 ×10⁻⁶ cm/s
- Permeability [3]: High
Structure (SMILES): O=C(C1CC1)N1CCC[C@H](Nc2nccc(-n3c(-c4ccc5c(c4)OCCO5)nc4ccc(O)cc43)n2)C1 [Compound 26c, (S)-cyclopropyl(3-((4-(2-(2,3-dihydrobenzo[b][1,4]dioxin-6-yl)-6-hydroxy-1H-benzo[d]imidazole-1-yl)pyrimidin-2-yl)amino)piperidine-1-yl)methanone]

- pIC50 ([1]; Table 3): > 7.52
Structure (SMILES): O=C(C1CC1)N1CCC[C@@H](Nc2nccc(-n3c(-c4ccc(Cl)c(Cl)c4)nc4cc(O)c(O)cc43)n2)C1 [Compound 35b, (R)-cyclopropyl(3-(4-(2-(3,4-dichlorophenyl)-5,6-dihydroxy-1H-benzo[d]imidazole-1-yl)pyrimidin-2-ylamino)piperidine-1-yl)methanone]

- pIC50 ([1]; Table 3): > 7.52
- efflux ratio [2]: 1.13
- Papp A→B [2]: 17.3 ×10⁻⁶ cm/s
- Papp B→A [2]: 19.6 ×10⁻⁶ cm/s
- Permeability [3]: High
Structure (SMILES): O=C(C1CC1)N1CCC[C@@H](Nc2nccc(-n3c(-c4ccc5c(c4)OCCO5)nc4cc(O)c(O)cc43)n2)C1 [Compound 35d, (R)-cyclopropyl(3-(4-(2-(2,3-dihydrobenzo[b][1,4]dioxin-6-yl)-5,6-dihydroxy-1H-benzo[d]imidazole-1-yl)pyrimidin-2-ylamino)piperidine-1-yl)methanone]
- concentration of beta-amyloid oligomer in the frontal lobe cortex [4]: significantly reduced
- expression level of APP in the frontal lobe cortex [4]: significantly reduced

The remaining lines, values behind:

Structure (SMILES): O=C(C1CC1)N1CCC[C@@H](Nc2nccc(-n3c(-c4ccc5ccccc5c4)nc4cc(O)c(O)cc43)n2)C1 [Compound 35a, (R)-cyclopropyl(3-(4-(5,6-dihydroxy-2-(naphthalene-2-yl)-1H-benzo[d]imidazole-1-yl)pyrimidin-2-ylamino)piperidine-1-yl)methanone]
- pIC50 ([1]; Table 3): > 7.52

Structure (SMILES): O=C(C1CC1)N1CCC[C@@H](Nc2nccc(-n3c(-c4ccc(F)c(C(F)(F)F)c4)nc4cc(O)c(O)cc43)n2)C1 [Compound 35c, (R)-cyclopropyl(3-(4-(2-(4-fluoro-3-(trifluoromethyl)phenyl)-5,6-dihydroxy-1H-benzo[d]imidazole-1-yl)pyrimidin-2-ylamino)piperidine-1-yl)methanone]
- pIC50 ([1]; Table 3): > 7.52

Structure (SMILES): O=C(C1CC1)N1CCC[C@@H](Nc2nccc(-n3c(-c4ccc5occc5c4)nc4cc(O)c(O)cc43)n2)C1 [Compound 35e, (R)-(3-(4-(2-(benzofuran-5-yl)-5,6-dihydroxy-1H-benzo[d]imidazole-1-yl)pyrimidin-2-ylamino)piperidine-1-yl)(cyclopropyl)methanone]
- pIC50 ([1]; Table 3): > 7.52

Structure (SMILES): Oc1c2ccccc2c2c3c(cccc13)N=N2 [SP600125, reference compound]
- pIC50 ([1]; Table 1): 7.00 to 7.52
- pIC50 ([1]; Table 2): 7.00 to 7.52
- pIC50 ([1]; Table 3): 7.00 to 7.52
